# Laboratory results as given in ChEMBL document CHEMBL5137060, “Glioblastoma: Current Status, Emerging Targets, and Recent Advances” (J Med Chem, 2022).
# Columns and labels:
# [1] = Antiproliferative activity against human U-87 MG cells incubated for 72 hrs by MTT assay; format: functional, cell-based, U-87MG ATCC
# [2] = Cytotoxicity against patient derived xenografted D456 cells; format: functional, cell-based; settings: Homo sapiens
# [3] = system: Astrocyte; test: Cytotoxicity against NHA cells; format: functional, cell-based; settings: Homo sapiens
# [4] = Plasma stability in mouse relative to control; format: ADME, cell-free
# [5] = Plasma stability in monkey relative to control; format: ADME, cell-free, Macaca mulatta; settings: rhesus monkey
# [6] = Plasma stability in human relative to control; format: ADME, cell-free
# [7] = Growth inhibition of human U373 cells; format: functional; settings: U373 MG
# [8] = system: Hs 683; test: Growth inhibition of human Hs 683 cells; format: functional
# [9] = system: U-87 MG; test: Cytotoxicity against human U87 cells; format: functional, U-87MG ATCC
# [10] = system: T98G; test: Cytotoxicity against human T98G cells; format: functional
# [11] = Antiproliferative activity against human U-343MG cells assessed as inhibition of cell growth incubated for 72 hrs by MTS assay; format: functional, cell-based
# [12] = Antiproliferative activity against human ANGM-CSS cells assessed as inhibition of cell growth incubated for 72 hrs by MTS assay; format: functional, cell-based
# [13] = system: U-251; test: Cytotoxicity against human U251N cells incubated for 24 to 72 hrs by fluorescence microscopic analysis; format: functional, cell-based
# [14] = system: U-251; test: Inhibition of cell migration of human U251N cells relative to control; format: functional
# [15] = system: U-251; test: Cytotoxicity against human U-251 cells assessed cell growth inhibition incubated for 48 hrs by CCK8 assay; format: functional, cell-based; settings: U-251, 48 h
# [16] = Cytotoxicity against human 091214 cells assessed cell growth inhibition incubated for 48 hrs by CCK8 assay; format: functional, cell-based; settings: Homo sapiens, 091214, 48 h
# [17] = Water solubility of the compound; format: physicochemical
# [18] = target: Translocator protein (Homo sapiens, UniProt P30536); test: Binding affinity to TSPO (unknown origin)
# Chain of Translocator protein (P30536 whole entry): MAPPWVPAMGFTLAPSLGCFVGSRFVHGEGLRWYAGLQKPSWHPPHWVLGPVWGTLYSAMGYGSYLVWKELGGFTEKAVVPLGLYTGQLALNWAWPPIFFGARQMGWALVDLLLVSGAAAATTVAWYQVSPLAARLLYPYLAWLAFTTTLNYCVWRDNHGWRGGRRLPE
# [19] = Antiproliferative activity against human U-87 MG cells assessed as inhibitionof cell growth incubated for 24 to 72 hrs by MTT assay; format: functional, cell-based, U-87MG ATCC
# [20] = system: LN-229; test: Cytotoxicity against human LN-229 cells assessed as cell viability measured after 48 hrs by countess-II FL Hemocytometer method; format: functional, cell-based; settings: LN-229, 48 h
# [21] = system: SNB-19; test: Cytotoxicity against human SNB-19 cells assessed as cell viability measured after 48 hrs by countess-II FL Hemocytometer method; format: functional, cell-based; settings: SNB-19, 48 h
# [22] = system: U-251; test: Cytotoxicity against human U-251 cells; format: functional, cell-based
# [23] = Cytotoxicity against U87MG Human EGFR vIII cells; format: functional, cell-based
# [24] = Inhibition of cell migration of patient derived glioblastoma T78 spheroid cell culture treated at 10 uM for 24 hrs by propidium iodide staining method relative to control; format: functional; settings: Homo sapiens
# [25] = Inhibition of cell migration of patient derived glioblastoma T86 spheroid cell culture treated at 10 uM for 24 hrs by propidium iodide staining method relative to control; format: functional; settings: Homo sapiens
# [26] = Cytotoxicity against patient derived glioblastoma T111 cells; format: functional; settings: Homo sapiens, read-out: LC50 (the source's name)
# [27] = Cytotoxicity against patient derived glioblastoma T78 cells; format: functional; settings: Homo sapiens, read-out: LC50 (the source's name)
# [28] = Cytotoxicity against patient derived glioblastoma T86 cells; format: functional; settings: Homo sapiens, read-out: LC50 (the source's name)
# [29] = system: DBTRG-05MG; test: Cytotoxicity against human DBTRG cells; format: functional, cell-based
# [30] = Cytotoxicity against human U-87 MG cells; format: functional, cell-based, U-87MG ATCC
# [31] = system: C6; test: Anticancer activity against rat C6 cells; format: functional, cell-based
# [32] = Cytotoxicity against human glial cells; format: toxicity, cell-based, Glial cell
# [33] = system: U-251; test: Cytotoxicity against human U-251MG cells assessed as cell viability; format: functional, cell-based
# [34] = system: T98G; test: Cytotoxicity against human T98G cells assessed as cell viability; format: functional, cell-based
# [35] = Cytotoxicity against human U-87G cells assessed as cell viability; format: functional, cell-based; settings: U87G
smiles,measurement,setting,value
O=C(NO)c1ccc(Cn2c(=O)n(CCc3ccccc3)c(=O)c3ccccc32)cc1,IC50,[1],1.56 µM
O=C1Nc2ccccc2C12CCN[C@@H]2c1ccccc1 (stereo partly drawn),IC50,[2],41.1 µM
same,IC50,[3],101 µM
CC(C)OC(=O)[C@H](CCC(=O)C=[N+]=[N-])NC(=O)[C@@H](N)Cc1c[nH]c2ccccc12,Stability,[4],0%
same,Stability,[5],10%
same,Stability,[6],61%
NC(=O)CC(c1ccc(NC(=O)c2cccnc2)cc1)c1cccc2[nH]ccc12 (stereo not drawn),IC50,[2],8.65 µM
same,IC50,[3],27.3 µM
O=C(c1ccccc1)c1[nH]c2[nH]cnc(=O)c2c1-c1ccccc1,GI50,[7],≤ 0.01 µM
same,GI50,[8],0.01 µM
O=C(Nc1ccc(Cl)c(C(F)(F)F)c1)c1ccc(Cl)cc1,IC50,[2],2.96 µM
same,IC50,[3],14.2 µM
Cc1ccc(C(C(=O)NO)c2c(-c3ccc4ccccc4c3)[nH]c3ccccc23)cc1C (stereo not drawn),GI50,[9],6.7 µM
same,GI50,[10],7.5 µM
O=C1Nc2ccc(NC(=O)[C@H](NC(=O)c3cccn(Cc4ccc(F)c(F)c4)c3=O)c3ccccc3)cc2/C1=C/c1cnc[nH]1,IC50,[11],0.0497 µM
same,IC50,[12],0.044 µM
COc1cc(NC(C)CCCNC(=O)CCCC(=O)NO)c2ncccc2c1 (stereo not drawn),IC50,[13],10 µM
same,inhibition (INH),[14],42%
C[C@@H]1O[C@@H](O[C@H]2CC[C@H](O[C@H]3[C@H](O)C[C@H](c4ccc5c(c4O)C(=O)c4ccc(C[C@](C)(CC(=O)O)O[C@H]6CC[C@H](O[C@H]7CCC(=O)[C@H](C)O7)[C@H](C)O6)c(O)c4C5=O)O[C@@H]3C)O[C@H]2C)CCC1=O [GRINCAMYCIN B],IC50,[15],2.04 µM
same,IC50,[16],3.11 µM
CCOC(=O)[C@H](CCC(=O)C=[N+]=N)NC(=O)OC(C)OC(=O)C(C)(C)C (stereo partly drawn),solubility,[17],> 25 mg/mL
Cc1ccc(CN(C)C(=O)c2nc(-c3ccccc3Cl)c3ccccc3n2)cc1,Ki,[18],0.00399 µM
C[C@@H]1C2CCCC3CC[C@]4(C)OO[C@]32[C@H](O[C@@H]1OCCCN=C=S)O4 (stereo partly drawn),IC50,[19],7.41 µM
O=C1CC(c2ccc(-c3cc[nH]n3)s2)c2cc(N3CCNC3=O)ccc2N1 (stereo not drawn),IC50,[2],1.59 µM
same,IC50,[3],4.11 µM
CC(C)(C)[Si](O[C@H]1[C@H](O)C[C@](O)(CO)C[C@H]1O[Si](c1ccccc1)(c1ccccc1)C(C)(C)C)(c1ccccc1)c1ccccc1,IC50,[20],10.7 µM
same,IC50,[21],28.2 µM
CC(C)(C)OC(=O)N1CC[C@@]2(C(=O)Nc3ccccc32)[C@@H]1c1cccc(Nc2ccc(CO)c(S(C)(=O)=O)c2)c1,IC50,[22],2.23 µM
same,IC50,[23],1.78 µM
CCn1c(-c2nonc2N)nc2cncc(CNC3CCNCC3)c21,inhibition at 10 µM,[24],37.8%
same,inhibition at 10 µM,[25],60.4%
same,CC50,[26],112 µM
same,CC50,[27],115 µM
same,CC50,[28],456 µM
O=C1c2cc(-c3cccnc3)ncc2C(=O)c2c1c(-c1ccccn1)nn2-c1ccc(F)cc1F,IC50,[22],2.5 µM
same,IC50,[29],2.5 µM
same,IC50,[30],2.5 µM
CCOC(=O)[C@H](CCC(=O)C=[N+]=[N-])NC(=O)[C@@H](N)Cc1c[nH]c2ccccc12,Stability,[4],0%
same,Stability,[5],4%
same,Stability,[6],12%
CCOC(=O)/C=C/c1ccc(/C=C/c2ccc(O)c(O)c2)cc1,IC50,[31],3.9 µM
same,IC50,[32],86 µM
COC(=O)/C=C/c1ccc(/C=C/c2ccc(O)c(O)c2)cc1,IC50,[31],5.4 µM
same,IC50,[32],142 µM
C[C@H]1O[C@@H](O[C@H]2CC[C@]3(C=O)[C@H]4CC[C@]5(C)[C@@H](C6CCC(=O)OC6)CC[C@]5(O)[C@@H]4CC[C@]3(O)C2)[C@H](O)[C@@H](O)[C@@H]1O (stereo partly drawn),IC50,[33],70 µM
same,IC50,[34],50 µM
same,IC50,[35],40 µM
O=C(NO)C(c1ccccc1)c1c(-c2ccc3ccccc3c2)[nH]c2ccccc12 (stereo not drawn),GI50,[9],21.3 µM
same,GI50,[10],1.9 µM
O=C1Nc2ccccc2C1Cc1ccc2cc[nH]c2c1 (stereo not drawn),IC50,[2],21.3 µM
same,IC50,[3],24.7 µM
O=C(COc1ccc2c(=O)c(-c3ccccc3)coc2c1)N=c1[nH]c2ccccc2[nH]1,IC50,[2],6.58 µM
same,IC50,[3],4.77 µM
